Assay results as given in ChEMBL document CHEMBL2407043, “Hydantoin based inhibitors of MMP13--discovery of AZD6605” (Bioorg Med Chem Lett, 2013).
In brackets after ≈: the same amount, converted by molar mass. Values belong to the compound of their own block, whether it stands above or below them.

Assays:
[1] = Thermodynamic solubility of the compound in phosphate buffer at pH 7.4 at 25 degC after 24 hrs; details: read-out: Therm_solubility
[2] = Clearance in rat at 2 mg/kg, iv and 5 mg/kg, po; type: ADME, organism-based; details: in vivo
[3] = Half life in dog at 0.5 mg/kg, iv and 1 mg/kg, po; type: ADME, organism-based, Canis lupus familiaris; details: in vivo
[4] = Oral bioavailability in rat at 5 mg/kg; type: ADME, organism-based; details: in vivo
Cytochrome P450 1A2 = target: T1, Cytochrome P450 1A2 (Homo sapiens, UniProt P05177); assay: Inhibition of human CYP1A2; type: ADME
T1 sequence (P05177 whole entry): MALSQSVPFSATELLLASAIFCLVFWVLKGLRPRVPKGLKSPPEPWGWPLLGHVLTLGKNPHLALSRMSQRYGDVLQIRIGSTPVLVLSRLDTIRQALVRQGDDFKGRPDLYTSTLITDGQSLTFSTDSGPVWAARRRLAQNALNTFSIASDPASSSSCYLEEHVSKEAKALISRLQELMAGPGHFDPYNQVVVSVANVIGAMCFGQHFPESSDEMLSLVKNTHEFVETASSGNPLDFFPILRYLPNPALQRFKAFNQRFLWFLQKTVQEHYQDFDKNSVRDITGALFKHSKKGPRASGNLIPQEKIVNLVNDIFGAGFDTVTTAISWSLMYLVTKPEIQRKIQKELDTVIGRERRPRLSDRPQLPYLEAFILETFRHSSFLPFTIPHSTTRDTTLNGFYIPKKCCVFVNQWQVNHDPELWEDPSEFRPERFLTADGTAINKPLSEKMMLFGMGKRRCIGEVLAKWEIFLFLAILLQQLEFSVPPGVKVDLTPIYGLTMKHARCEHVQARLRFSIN

[5] = Volume of distribution at steady state in rat at 2 mg/kg, iv and 5 mg/kg, po; type: ADME, organism-based; details: in vivo, read-out: Vdss
[6] = target: Matrix metalloproteinase-14 (Homo sapiens, UniProt P50281)
[7] = Half life in rat at 2 mg/kg, iv and 5 mg/kg, po; type: ADME, organism-based; details: in vivo
[8] = Volume of distribution at steady state in dog at 0.5 mg/kg, iv and 1 mg/kg, po; type: ADME, organism-based, Canis lupus familiaris; details: in vivo, read-out: Vdss
Cytochrome P450 2C9 = Cytochrome P450 2C9 (Homo sapiens, UniProt P11712); assay: Inhibition of human CYP2C9; type: ADME
Sequence of Cytochrome P450 2C9 (P11712 whole entry): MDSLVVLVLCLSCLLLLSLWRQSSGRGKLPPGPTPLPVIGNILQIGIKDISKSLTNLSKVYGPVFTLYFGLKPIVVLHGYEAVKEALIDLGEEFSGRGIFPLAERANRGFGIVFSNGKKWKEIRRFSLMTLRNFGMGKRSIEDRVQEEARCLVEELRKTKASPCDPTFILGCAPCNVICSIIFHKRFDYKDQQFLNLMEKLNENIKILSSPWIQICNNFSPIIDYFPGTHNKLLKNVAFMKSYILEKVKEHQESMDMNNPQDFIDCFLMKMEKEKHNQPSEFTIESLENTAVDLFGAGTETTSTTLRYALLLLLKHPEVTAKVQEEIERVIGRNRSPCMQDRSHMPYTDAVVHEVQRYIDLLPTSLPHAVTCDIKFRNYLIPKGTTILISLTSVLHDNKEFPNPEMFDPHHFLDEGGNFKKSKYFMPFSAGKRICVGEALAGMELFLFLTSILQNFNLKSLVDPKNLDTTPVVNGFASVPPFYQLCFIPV

[9] = Oral bioavailability in dog at 1 mg/kg; type: ADME, organism-based, Canis lupus familiaris; details: in vivo
Cytochrome P450 3A4 = Cytochrome P450 3A4 (Homo sapiens, UniProt P08684); assay: Inhibition of human CYP3A4; type: ADME
Sequence of Cytochrome P450 3A4 (P08684 whole entry): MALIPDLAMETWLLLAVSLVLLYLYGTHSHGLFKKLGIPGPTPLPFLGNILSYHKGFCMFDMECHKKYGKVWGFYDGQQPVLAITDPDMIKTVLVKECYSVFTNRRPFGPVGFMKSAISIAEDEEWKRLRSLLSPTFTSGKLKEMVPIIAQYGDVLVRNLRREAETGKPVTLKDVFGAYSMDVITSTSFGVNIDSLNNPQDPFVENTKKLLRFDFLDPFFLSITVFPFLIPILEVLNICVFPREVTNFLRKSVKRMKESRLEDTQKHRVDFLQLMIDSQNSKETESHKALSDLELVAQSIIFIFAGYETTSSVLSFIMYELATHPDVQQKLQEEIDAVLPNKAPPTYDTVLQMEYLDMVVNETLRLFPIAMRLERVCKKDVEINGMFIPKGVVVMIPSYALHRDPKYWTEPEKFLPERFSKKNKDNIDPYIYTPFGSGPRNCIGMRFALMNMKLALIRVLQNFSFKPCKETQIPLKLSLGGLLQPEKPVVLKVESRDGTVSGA

Cytochrome P450 2D6 = Cytochrome P450 2D6 (Homo sapiens, UniProt P10635); assay: Inhibition of human CYP2D6; type: ADME
Sequence of Cytochrome P450 2D6 (P10635 whole entry): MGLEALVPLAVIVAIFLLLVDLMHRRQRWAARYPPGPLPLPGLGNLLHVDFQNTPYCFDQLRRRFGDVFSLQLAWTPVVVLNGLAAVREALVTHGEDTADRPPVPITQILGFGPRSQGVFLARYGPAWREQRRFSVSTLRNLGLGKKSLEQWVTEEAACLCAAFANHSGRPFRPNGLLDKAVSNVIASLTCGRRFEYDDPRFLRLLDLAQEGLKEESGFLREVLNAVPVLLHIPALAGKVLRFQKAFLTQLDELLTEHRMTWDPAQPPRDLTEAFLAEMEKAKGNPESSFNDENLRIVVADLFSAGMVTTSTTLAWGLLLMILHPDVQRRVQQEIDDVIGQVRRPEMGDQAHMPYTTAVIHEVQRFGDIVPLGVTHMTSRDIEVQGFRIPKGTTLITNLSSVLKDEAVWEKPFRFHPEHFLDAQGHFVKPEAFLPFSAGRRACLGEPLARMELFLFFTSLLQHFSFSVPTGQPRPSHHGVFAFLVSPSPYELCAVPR

[10] = Clearance in dog at 0.5 mg/kg, iv and 1 mg/kg, po; type: ADME, organism-based, Canis lupus familiaris; details: in vivo
Cytochrome P450 2C19 = Cytochrome P450 2C19 (Homo sapiens, UniProt P33261); assay: Inhibition of human CYP2C19; type: ADME
Sequence of Cytochrome P450 2C19 (P33261 whole entry): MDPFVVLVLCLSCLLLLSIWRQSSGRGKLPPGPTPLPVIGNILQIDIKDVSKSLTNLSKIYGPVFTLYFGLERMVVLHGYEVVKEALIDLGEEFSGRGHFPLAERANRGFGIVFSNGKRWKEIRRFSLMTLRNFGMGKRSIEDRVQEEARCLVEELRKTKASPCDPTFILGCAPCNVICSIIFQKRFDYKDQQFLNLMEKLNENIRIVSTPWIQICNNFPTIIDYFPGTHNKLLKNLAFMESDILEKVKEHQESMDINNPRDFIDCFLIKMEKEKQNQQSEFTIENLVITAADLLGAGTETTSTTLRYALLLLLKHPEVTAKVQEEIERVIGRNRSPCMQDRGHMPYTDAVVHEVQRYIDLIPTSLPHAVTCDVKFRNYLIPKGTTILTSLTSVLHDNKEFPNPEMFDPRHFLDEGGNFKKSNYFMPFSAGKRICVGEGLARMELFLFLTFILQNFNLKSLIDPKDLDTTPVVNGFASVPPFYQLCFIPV

[11] = Clearance in rat at 2 mg/kg, iv; type: ADME, organism-based; parameters: dose 2 mg/kg, route intravenous; details: in vivo
[12] = Half life in rat; type: ADME, organism-based; details: in vivo
in vitro = details: human, liver microsomes
[13] = Elimination half life in dog; type: ADME, organism-based, Canis lupus familiaris; details: in vivo, read-out: beta t1/2 (converted)
[14] = Elimination half life in mouse; type: ADME, organism-based; details: in vivo, read-out: beta t1/2 (converted)
[15] = Oral bioavailability in rat at 3 to 10 mg/kg; type: ADME, organism-based; details: in vivo
[16] = Elimination half life in rat; type: ADME, organism-based; details: in vivo, read-out: beta t1/2 (converted)
[17] = target: Macrophage metalloelastase (Homo sapiens, UniProt P39900); assay: Inhibition of MMP-12 (unknown origin) by fluorescence assay
Sequence of Macrophage metalloelastase (P39900 whole entry): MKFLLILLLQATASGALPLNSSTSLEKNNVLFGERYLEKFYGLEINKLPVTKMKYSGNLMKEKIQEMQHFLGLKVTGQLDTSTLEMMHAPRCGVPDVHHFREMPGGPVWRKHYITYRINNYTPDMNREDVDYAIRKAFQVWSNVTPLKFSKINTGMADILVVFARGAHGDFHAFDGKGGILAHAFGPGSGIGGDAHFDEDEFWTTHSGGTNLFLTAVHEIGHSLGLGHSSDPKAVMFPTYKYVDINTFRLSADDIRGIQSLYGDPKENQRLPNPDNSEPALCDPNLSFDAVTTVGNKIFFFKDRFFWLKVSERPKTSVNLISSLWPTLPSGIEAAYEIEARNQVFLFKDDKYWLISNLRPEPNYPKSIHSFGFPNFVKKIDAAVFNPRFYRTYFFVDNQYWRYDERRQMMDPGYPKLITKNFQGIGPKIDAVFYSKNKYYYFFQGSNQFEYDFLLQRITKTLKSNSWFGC

[18] = Intrinsic clearance in rat liver microsomes; type: ADME, Microsome; details: read-out: CLH
[19] = Intrinsic clearance in dog liver microsomes; type: ADME, Canis lupus familiaris, Microsome; details: read-out: CLH

solubility thermodynamic at 24 h [1]: 8.4 µM (≈ 3.99 µg/mL)
SMILES: C[C@]1(CS(=O)(=O)N2CCC(Oc3ccc(OCc4cccnc4)cc3)CC2)NC(=O)NC1=O

clearance [2]: 17 mL/min/kg
half-life [3]: 2.3 h
bioavailability [4]: 35%
IC50 (Cytochrome P450 1A2): > 10 µM
Vd [5]: 0.8 L/kg
IC50 [6]: 6.9 µM
half-life [7]: 2.5 h
Vd [8]: 0.6 L/kg
IC50 (Cytochrome P450 2C9): > 10 µM
bioavailability [9]: 51%
IC50 (Cytochrome P450 3A4): > 10 µM
solubility thermodynamic at 24 h [1]: 20 µM (≈ 9.49 µg/mL)
IC50 (Cytochrome P450 2D6): > 10 µM
clearance [10]: 3 mL/min/kg
IC50 (Cytochrome P450 2C19): > 10 µM
SMILES: C[C@]1(CS(=O)(=O)N2CCC(Oc3ccc(OCc4ccccn4)cc3)CC2)NC(=O)NC1=O

IC50 [6]: 4.09 µM
solubility thermodynamic at 24 h [1]: 87 µM (≈ 41.8 µg/mL)
SMILES: C[C@]1(CS(=O)(=O)N2CCC(Oc3ccc(OCc4cscn4)cc3)CC2)NC(=O)NC1=O

IC50 [6]: 0.35 µM
solubility thermodynamic at 24 h [1]: 28 µM (≈ 13.5 µg/mL)
SMILES: C[C@]1(CS(=O)(=O)N2CCC(Oc3ccc(OCc4cnsn4)cc3)CC2)NC(=O)NC1=O

IC50 [6]: 1.86 µM
SMILES: C[C@]1(CS(=O)(=O)N2CCC(Oc3ccc(OCc4ccc(C(F)(F)F)o4)cc3)CC2)NC(=O)NC1=O

Vd [5]: 0.5 L/kg
clearance [11]: 4.8 mL/min/kg
half-life [12]: 1.9 h
solubility thermodynamic at 24 h [1]: 16 µM (≈ 7.66 µg/mL)
microsomal CLint (in vitro): 16 µL/min/mg
SMILES: C[C@]1(CS(=O)(=O)N2CCN(c3ncc(OCc4ccc(F)cc4)cn3)CC2)NC(=O)NC1=O

half-life [13]: 5.4 h
Vd [5]: 0.5 L/kg
half-life [14]: 5.8 h
bioavailability [15]: 51%
clearance [11]: 18.1 mL/min/kg
half-life [12]: 7.5 h
half-life [16]: 7.5 h
solubility thermodynamic at 24 h [1]: 66 µM (≈ 32 µg/mL)
microsomal CLint (in vitro): < 2 µL/min/mg
SMILES: C[C@]1(CS(=O)(=O)N2CCN(c3ncc(OCc4cccc(C#N)c4)cn3)CC2)NC(=O)NC1=O

solubility thermodynamic at 24 h [1]: 1 µM (≈ 0.539 µg/mL)
SMILES: C[C@]1(CS(=O)(=O)N2CCN(c3ncc(OCc4ccc(S(C)(=O)=O)cc4)cn3)CC2)NC(=O)NC1=O

IC50 [17]: 0.0237 µM
solubility thermodynamic at 24 h [1]: 52 µM (≈ 20 µg/mL)
SMILES: C[C@]1(CS(=O)(=O)N2CCC(Oc3ccc(F)cc3)CC2)NC(=O)NC1=O

IC50 [6]: 2.82 µM
IC50 [17]: 0.002 µM
solubility thermodynamic at 24 h [1]: 15 µM (≈ 6.17 µg/mL)
SMILES: CCOc1ccc(OC2CCN(S(=O)(=O)C[C@@]3(C)NC(=O)NC3=O)CC2)cc1

IC50 [6]: 9.5 µM
IC50 [17]: 0.0033 µM
solubility thermodynamic at 24 h [1]: 18 µM (≈ 8.13 µg/mL)
SMILES: C[C@]1(CS(=O)(=O)N2CCC(Oc3ccc(OC(F)(F)F)cc3)CC2)NC(=O)NC1=O

IC50 [6]: 1.95 µM
solubility thermodynamic at 24 h [1]: 34 µM (≈ 15.8 µg/mL)
SMILES: C[C@]1(CS(=O)(=O)N2CCC(Oc3ccc(OCC(F)(F)F)cc3)CC2)NC(=O)NC1=O

IC50 [6]: 3.12 µM
solubility thermodynamic at 24 h [1]: 110 µM (≈ 52.7 µg/mL)
SMILES: C[C@]1(CS(=O)(=O)N2CCC(Oc3ccc(OCCC(F)(F)F)cc3)CC2)NC(=O)NC1=O

IC50 [6]: 4.74 µM
solubility thermodynamic at 24 h [1]: 4.4 µM (≈ 2.27 µg/mL)
SMILES: C[C@]1(CS(=O)(=O)N2CCC(Oc3ccc(OCC(F)(F)C(F)(F)F)cc3)CC2)NC(=O)NC1=O

IC50 [6]: 0.553 µM
solubility thermodynamic at 24 h [1]: 32 µM (≈ 15.9 µg/mL)
SMILES: C[C@]1(CS(=O)(=O)N2CCC(Oc3ccc(OCC(F)(F)C(F)F)cc3)CC2)NC(=O)NC1=O

IC50 [6]: > 10 µM
solubility thermodynamic at 24 h [1]: < 2 µM
SMILES: C[C@]1(CS(=O)(=O)N2CCC(Oc3ccc(OC(F)(F)C(F)(F)F)cc3)CC2)NC(=O)NC1=O

IC50 (Cytochrome P450 1A2): > 40 µM
IC50 (Cytochrome P450 2C9): > 40 µM
IC50 (Cytochrome P450 3A4): > 40 µM
IC50 [17]: 0.0059 µM
solubility thermodynamic at 24 h [1]: 23 µM (≈ 10 µg/mL)
microsomal CLint [18]: < 10 µL/min/mg
IC50 (Cytochrome P450 2D6): > 40 µM
IC50 (Cytochrome P450 2C19): > 40 µM
microsomal CLint (in vitro): < 10 µL/min/mg
microsomal CLint [19]: < 10 µL/min/mg
SMILES: C[C@]1(CS(=O)(=O)N2CCC(Oc3ccc(C(F)(F)F)cc3)CC2)NC(=O)NC1=O

IC50 [17]: 0.0089 µM
solubility thermodynamic at 24 h [1]: 12 µM (≈ 4.82 µg/mL)
SMILES: C[C@]1(CS(=O)(=O)N2CCC(Oc3ccc(Cl)cc3)CC2)NC(=O)NC1=O
